From article PMC8234620, “An Integrated Peptidomics and In Silico Approach to Identify Novel Anti-Diabetic Peptides in Parmigiano-Reggiano Cheese” (Biology, 2021)

How the values were obtained:
[1] = target: T1, porcine pancreatic α-amylase (Sus scrofa, UniProt P00690); test: α-Amylase assay; type: biochemical; conditions: synthetic peptides; n.a. = not active
T1 sequence (P00690 16-511): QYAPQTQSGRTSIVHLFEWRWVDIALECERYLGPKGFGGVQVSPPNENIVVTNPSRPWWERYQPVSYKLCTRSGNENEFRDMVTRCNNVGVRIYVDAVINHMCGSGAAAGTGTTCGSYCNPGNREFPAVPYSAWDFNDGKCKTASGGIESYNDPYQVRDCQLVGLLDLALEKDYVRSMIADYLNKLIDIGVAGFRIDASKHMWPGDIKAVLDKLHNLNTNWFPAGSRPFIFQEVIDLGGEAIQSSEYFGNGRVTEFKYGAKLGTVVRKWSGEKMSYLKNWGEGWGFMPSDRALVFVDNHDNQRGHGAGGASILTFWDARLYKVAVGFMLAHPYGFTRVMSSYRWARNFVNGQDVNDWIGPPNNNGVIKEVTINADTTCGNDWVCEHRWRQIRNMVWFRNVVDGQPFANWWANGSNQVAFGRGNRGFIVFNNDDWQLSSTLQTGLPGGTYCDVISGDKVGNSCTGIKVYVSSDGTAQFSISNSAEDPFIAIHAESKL
Experimental: α-Amylase assay was performed in accordance with McDougall et al. adapted to a microplate reader. For the reaction, 5 μL of 2 U/mL of porcine pancreatic α-amylase (dissolved in sodium phosphate buffer 20 mmol/L pH 6.9 containing 6.7 mmol/L NaCl) were mixed with 45 μL of sodium phosphate buffer or different concentrations of water-soluble low-molecular weight peptide extracts. The mixture was incubated at 37 °C for 20 min before adding 50 μL of 1% starch solution. The reaction was carried out at 37 °C for 10 min and stopped by the addition of dinitrosalicylic acid solution, followed by 15 min boiling in a water bath. After the addition of 450 μL of water, 200 μL of solution was transferred in a 96-well plate and the absorbance was read at 540 nm. Results were expressed as IC50, namely the peptides concentration (expressed in mg/mL) able to inhibit the enzymatic activity by 50%. The IC50 values were calculated by plotting the peptide concentration (base-10 logarithm) as a function of the percentage of enzyme inhibition.
(§1) Selected peptides were then synthesized (Bio-Fab Research, Rome, Italy) and tested for their inhibitory activity against DPP-IV, α-glucosidase, and α-amylase. The assays were carried out as reported in Section 2.3. The results were expressed as IC50 values.

rat intestinal DPP-IV = target: T2, rat intestinal DPP-IV (Rattus norvegicus, UniProt P14740); test: Dipeptidyl peptidase IV (DPP-IV) assay; type: biochemical; conditions: synthetic peptides
T2 construct: 10 μL of rat intestinal DPP-IV (0.1 U/mL in the assay); from tissue; host or cells: rat intestine
T2 sequence (P14740 whole entry): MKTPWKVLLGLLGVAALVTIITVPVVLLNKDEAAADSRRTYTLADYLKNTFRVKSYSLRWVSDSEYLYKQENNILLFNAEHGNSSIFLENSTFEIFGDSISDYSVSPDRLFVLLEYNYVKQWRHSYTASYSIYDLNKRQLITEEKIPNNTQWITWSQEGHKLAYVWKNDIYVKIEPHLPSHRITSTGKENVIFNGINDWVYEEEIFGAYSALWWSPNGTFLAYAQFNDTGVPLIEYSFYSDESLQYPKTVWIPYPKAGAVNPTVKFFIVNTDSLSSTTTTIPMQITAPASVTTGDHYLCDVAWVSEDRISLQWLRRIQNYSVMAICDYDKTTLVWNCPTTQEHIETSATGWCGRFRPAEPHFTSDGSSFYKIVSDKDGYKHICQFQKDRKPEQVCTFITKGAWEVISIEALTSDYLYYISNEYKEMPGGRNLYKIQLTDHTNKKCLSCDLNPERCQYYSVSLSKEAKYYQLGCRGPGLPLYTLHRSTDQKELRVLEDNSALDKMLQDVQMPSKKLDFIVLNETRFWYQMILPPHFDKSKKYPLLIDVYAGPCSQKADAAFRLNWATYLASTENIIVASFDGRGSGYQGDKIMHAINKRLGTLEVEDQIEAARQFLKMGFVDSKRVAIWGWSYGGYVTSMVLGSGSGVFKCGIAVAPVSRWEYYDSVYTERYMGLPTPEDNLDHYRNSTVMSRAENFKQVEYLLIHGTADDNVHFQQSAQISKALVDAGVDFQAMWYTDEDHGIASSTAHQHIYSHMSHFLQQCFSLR
Experimental: DPP-IV assay was performed as described in Tagliazucchi et al.. Briefly, in a 96-well plate, 10 μL of rat intestinal DPP-IV (0.1 U/mL in the assay) were mixed with 145 μL of Tris-HCl buffer (pH 7.0; 0.1 mol/L) and 40 μL of different concentrations of water-soluble low-molecular weight peptide extracts. After 20 min of incubation at 37 °C, the reaction was started by the addition of 5 μL of glycine-proline-p-nitroanilide (6.4 mmol/L). The amount of released p-nitroanilide was determined after 20 min of incubation at 37 °C by reading at 405 nm in a microplate reader. Results were expressed as IC50 as reported above.
as §1

yeast α-glucosidase = yeast α-glucosidase (Saccharomyces cerevisiae, UniProt P53341); test: α-Glucosidase assay; type: biochemical; conditions: synthetic peptides; n.a. = not active
Chain of yeast α-glucosidase (P53341 whole entry): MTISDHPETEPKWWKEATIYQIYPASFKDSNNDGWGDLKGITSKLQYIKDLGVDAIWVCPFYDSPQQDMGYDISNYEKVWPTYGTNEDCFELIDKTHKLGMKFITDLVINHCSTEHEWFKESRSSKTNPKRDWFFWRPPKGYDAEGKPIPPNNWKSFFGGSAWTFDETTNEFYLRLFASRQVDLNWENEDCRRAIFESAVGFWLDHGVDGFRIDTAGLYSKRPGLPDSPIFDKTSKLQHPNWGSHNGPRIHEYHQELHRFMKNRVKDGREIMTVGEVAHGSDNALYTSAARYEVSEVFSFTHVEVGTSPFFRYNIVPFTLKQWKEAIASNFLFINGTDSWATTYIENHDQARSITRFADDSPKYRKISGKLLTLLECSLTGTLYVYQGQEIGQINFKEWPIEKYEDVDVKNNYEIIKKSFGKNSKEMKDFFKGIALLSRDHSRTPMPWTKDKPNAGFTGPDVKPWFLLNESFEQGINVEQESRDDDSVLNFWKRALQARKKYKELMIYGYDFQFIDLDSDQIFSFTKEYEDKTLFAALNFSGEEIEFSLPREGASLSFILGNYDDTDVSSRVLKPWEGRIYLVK
Experimental: α-Glucosidase assay was performed as reported in Bellesia et al., adapted to a microplate reader. The reaction was performed by mixing 66.7 μL of potassium phosphate buffer (67 mmol/L, pH 6.8), 3.3 μL of glutathione 3 mmol/L, 20 μL of different concentrations of water-soluble low-molecular weight peptide extracts, and 5 μL of yeast α-glucosidase 0.2 U/mL. After 20 min of incubation at 37 °C, the reaction was started by the addition of 5 μL of p-nitrophenyl-glucose 5 mmol/L. After a further 20 min of incubation at 37 °C, the reaction was stopped by the addition of 150 μL of Na2CO3 100 mmol/L. The amount of released p-nitrophenol was determined by reading at 405 nm with a microplate reader. Results were expressed as IC50 as reported above.
as §1

[2] = test system: Staphylococcus aureus, Streptococcus pyogenes, and Listeria monocytogenes; set-up: method as in PMID 8603791; conditions: mice; ref [50]; cited from earlier work
[3] = set-up: method as in BIOPEP database and Milk Bioactive Peptides Database; conditions: ref BIOPEP database and Milk Bioactive Peptides Database; cited from earlier work
[4] = set-up: method as in BIOPEP database and Milk Bioactive Peptides Database; conditions: ref BIOPEP database and Milk Bioactive Peptides Database; cited from earlier work; remark: listed apart in the source
[5] = set-up: method as in BIOPEP database and Milk Bioactive Peptides Database; conditions: ref BIOPEP database and Milk Bioactive Peptides Database; cited from earlier work; remark: listed apart in the source
[6] = set-up: method as in PMID 27572703, PMID 33337010; conditions: mild hypertensive subjects; ref [47],[58]; cited from earlier work
[7] = set-up: method as in BIOPEP database and Milk Bioactive Peptides Database; conditions: ref BIOPEP database and Milk Bioactive Peptides Database; cited from earlier work; remark: listed apart in the source
[8] = test system: angiotensin converting enzyme; conditions: cited from earlier work

Compound: CC[C@H](C)[C@H](N)C(=O)N1CCC[C@H]1C(=O)N1CCC[C@H]1C(=O)O [IPP]
- IC50 [1]: 763 ± 18.9 µM
- IC50 (rat intestinal DPP-IV): 169 ± 2.2 µM
- IC50 (yeast α-glucosidase): 765 ± 15 µM

Compound: RPKHPIKHQGLPQEVLNENLLRF [αS1-casein f(1–23), anti-microbial peptide isracidin]
- in vivo anti-microbial effect [2]: protecting mice
- Bioactivity: Anti-microbial [3]: Anti-microbial
- Bioactivity: Immunomodulation [4]: Immunomodulation

Compound: VPP
- Bioactivity: Anti-inflammatory [5]: Anti-inflammatory
- in vivo anti-hypertensive effect [6]: anti-hypertensive effect
- Bioactivity: Antioxidant [7]: Antioxidant
- Bioactivity: ACE-inhibition ([8]; ref BIOPEP database and Milk Bioactive Peptides Database): ACE-inhibition
- IC50 values against ACE ([8]; ref [47],[48],[49]): very low
